In ChEMBL document CHEMBL5625172, “Synthesis and evaluation of dihydrofuro[2,3-b]pyridine derivatives as potent IRAK4 inhibitors” (Eur J Med Chem, 2023):
Active and inactive are the calls of the source. The calls are words filed in the database; no cut-off is given here.

Legend:
[1] = target: T1, Interleukin-1 receptor-associated kinase 4 (Homo sapiens, UniProt Q9NWZ3); test: Inhibition of IRAK4 (unknown origin) using FAM-labeled peptide as substrate incubated for 10 mins in presence of ATP by mobility shift assay
T1 sequence (Q9NWZ3 whole entry): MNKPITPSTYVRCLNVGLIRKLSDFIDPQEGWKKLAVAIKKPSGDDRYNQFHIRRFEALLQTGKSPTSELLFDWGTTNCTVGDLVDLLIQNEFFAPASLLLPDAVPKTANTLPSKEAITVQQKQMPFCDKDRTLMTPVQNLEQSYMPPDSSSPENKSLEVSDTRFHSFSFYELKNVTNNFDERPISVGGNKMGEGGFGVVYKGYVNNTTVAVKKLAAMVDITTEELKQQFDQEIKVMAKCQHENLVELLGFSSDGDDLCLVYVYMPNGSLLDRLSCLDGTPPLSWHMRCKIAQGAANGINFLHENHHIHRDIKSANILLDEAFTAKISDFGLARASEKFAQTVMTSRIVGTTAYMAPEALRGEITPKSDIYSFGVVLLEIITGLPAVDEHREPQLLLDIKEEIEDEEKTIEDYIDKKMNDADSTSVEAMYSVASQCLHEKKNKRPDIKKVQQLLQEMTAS

[2] = Clearance in Sprague-Dawley rat at 2 mg/kg, iv measured after 5 mins to 24 hrs by LC-MS analysis; format: ADME, organism-based; details: in vivo, time 5-1440 min
[3] = Oral bioavailability in Sprague-Dawley rat at 5 to 10 mg/kg measured after 0.25 to 24 hrs by LC-MS analysis; format: ADME, organism-based; details: in vivo, dose lower 5 mg/kg, time lower 0.25 hrs, dose upper 10 mg/kg, time upper 24 hrs
[4] = target: Mitogen-activated protein kinase kinase kinase 5 (Homo sapiens, UniProt Q99683); test: Inhibition of ASK1 (unknown origin) by scintillation proximity assay
[5] = target: Tyrosine-protein kinase BTK (Homo sapiens, UniProt Q06187); test: Inhibition of BTK (unknown origin) by scintillation proximity assay
Chain of Tyrosine-protein kinase BTK (Q06187 whole entry): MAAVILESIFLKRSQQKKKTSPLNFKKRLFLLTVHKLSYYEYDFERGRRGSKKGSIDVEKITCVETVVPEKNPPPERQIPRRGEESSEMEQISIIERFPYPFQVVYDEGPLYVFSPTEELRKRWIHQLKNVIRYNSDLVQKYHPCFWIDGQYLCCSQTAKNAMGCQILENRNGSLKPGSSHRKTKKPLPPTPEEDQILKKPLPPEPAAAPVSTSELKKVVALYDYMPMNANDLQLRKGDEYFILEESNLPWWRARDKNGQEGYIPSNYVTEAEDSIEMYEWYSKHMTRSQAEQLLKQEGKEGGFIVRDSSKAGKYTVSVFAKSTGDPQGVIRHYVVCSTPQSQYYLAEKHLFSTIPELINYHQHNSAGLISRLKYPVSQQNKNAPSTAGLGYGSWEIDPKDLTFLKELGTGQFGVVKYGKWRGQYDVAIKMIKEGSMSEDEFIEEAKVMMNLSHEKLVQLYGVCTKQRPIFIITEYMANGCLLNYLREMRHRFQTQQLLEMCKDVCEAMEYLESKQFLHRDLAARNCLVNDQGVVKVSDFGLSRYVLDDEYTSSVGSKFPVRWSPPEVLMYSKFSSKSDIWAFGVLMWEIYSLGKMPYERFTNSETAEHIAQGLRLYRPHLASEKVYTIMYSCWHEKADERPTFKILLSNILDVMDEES

[6] = target: Serine/threonine-protein kinase B-raf (Homo sapiens, UniProt P15056); test: Inhibition of B-Raf (unknown origin) by scintillation proximity assay
[7] = target: Calcium/calmodulin-dependent protein kinase type 1 (Homo sapiens, UniProt Q14012); test: Inhibition of CaMKI (unknown origin) by scintillation proximity assay
[8] = Inhibition of CDK2/cyclinA (unknown origin) by scintillation proximity assay; design: species or system Homo sapiens
[9] = target: CDK4/Cyclin D3 (Homo sapiens, UniProt P11802); test: Inhibition of CDK4/cyclinD3 (unknown origin) by scintillation proximity assay; format: protein-complex assay
Chain of CDK4/Cyclin D3 (P11802 whole entry): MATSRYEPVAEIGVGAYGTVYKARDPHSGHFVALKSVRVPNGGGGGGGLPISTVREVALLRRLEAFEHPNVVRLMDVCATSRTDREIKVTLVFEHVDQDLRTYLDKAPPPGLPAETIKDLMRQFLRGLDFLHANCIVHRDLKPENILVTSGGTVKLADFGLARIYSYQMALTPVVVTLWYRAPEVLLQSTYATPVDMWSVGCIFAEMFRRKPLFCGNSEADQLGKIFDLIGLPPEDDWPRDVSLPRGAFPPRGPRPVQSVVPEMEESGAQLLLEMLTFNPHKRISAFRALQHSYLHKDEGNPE
Chain of CDK4/Cyclin D3 (P30281 whole entry, further chain): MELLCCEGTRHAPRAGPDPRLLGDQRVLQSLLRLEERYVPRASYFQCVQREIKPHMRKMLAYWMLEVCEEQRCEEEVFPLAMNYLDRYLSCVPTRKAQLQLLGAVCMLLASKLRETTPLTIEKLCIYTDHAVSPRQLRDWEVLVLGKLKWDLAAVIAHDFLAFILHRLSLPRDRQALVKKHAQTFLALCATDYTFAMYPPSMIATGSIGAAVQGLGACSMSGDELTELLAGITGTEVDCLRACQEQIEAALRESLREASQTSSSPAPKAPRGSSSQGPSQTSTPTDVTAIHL

[10] = target: Dual specificity protein kinase CLK1 (Homo sapiens, UniProt P49759); test: Inhibition of CLK1 (unknown origin) by scintillation proximity assay
Chain of Dual specificity protein kinase CLK1 (P49759 whole entry): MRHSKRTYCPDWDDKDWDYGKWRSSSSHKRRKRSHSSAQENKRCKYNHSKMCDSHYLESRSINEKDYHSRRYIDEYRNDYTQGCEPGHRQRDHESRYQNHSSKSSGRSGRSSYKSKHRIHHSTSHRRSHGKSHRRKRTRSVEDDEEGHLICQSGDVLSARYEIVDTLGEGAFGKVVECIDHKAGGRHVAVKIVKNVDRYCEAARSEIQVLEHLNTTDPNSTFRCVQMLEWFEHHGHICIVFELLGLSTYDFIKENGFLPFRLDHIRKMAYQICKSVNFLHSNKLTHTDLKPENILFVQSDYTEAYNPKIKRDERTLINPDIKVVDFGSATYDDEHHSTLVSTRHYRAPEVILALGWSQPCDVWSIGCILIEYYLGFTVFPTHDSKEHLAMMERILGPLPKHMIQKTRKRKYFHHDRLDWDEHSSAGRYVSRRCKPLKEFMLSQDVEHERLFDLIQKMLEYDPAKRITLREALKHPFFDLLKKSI

[11] = target: Serine/threonine-protein kinase 17A (Homo sapiens, UniProt Q9UEE5); test: Inhibition of DRAK1 (unknown origin) by scintillation proximity assay
[12] = target: Dual specificity tyrosine-phosphorylation-regulated kinase 1A (Homo sapiens, UniProt Q13627); test: Inhibition of DYRK1A (unknown origin) by scintillation proximity assay
[13] = target: Epidermal growth factor receptor (Homo sapiens, UniProt P00533); test: Inhibition of EGFR (unknown origin) by scintillation proximity assay
[14] = target: Receptor-type tyrosine-protein kinase FLT3 (Homo sapiens, UniProt P36888); test: Inhibition of FLT3 (unknown origin) by scintillation proximity assay
[15] = target: MAP kinase-activated protein kinase 2 (Homo sapiens, UniProt P49137); test: Inhibition of MAPKAP-K2 (unknown origin) by scintillation proximity assay
Chain of MAP kinase-activated protein kinase 2 (P49137 whole entry): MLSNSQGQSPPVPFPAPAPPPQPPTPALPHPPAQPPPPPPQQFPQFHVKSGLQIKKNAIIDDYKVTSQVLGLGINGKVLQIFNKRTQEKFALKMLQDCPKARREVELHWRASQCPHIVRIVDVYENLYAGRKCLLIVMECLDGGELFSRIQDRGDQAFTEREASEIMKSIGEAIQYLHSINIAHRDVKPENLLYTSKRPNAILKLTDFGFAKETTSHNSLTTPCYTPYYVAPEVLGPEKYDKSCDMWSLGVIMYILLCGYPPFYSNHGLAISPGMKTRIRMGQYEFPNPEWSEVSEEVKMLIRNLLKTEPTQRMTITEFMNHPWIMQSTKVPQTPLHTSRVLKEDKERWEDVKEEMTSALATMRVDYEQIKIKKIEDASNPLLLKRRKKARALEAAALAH

[16] = target: Homeodomain-interacting protein kinase 1 (Homo sapiens, UniProt Q86Z02); test: Inhibition of HIPK1 (unknown origin) by scintillation proximity assay
[17] = target: Tyrosine-protein kinase JAK1 (Homo sapiens, UniProt P23458); test: Inhibition of JAK1 (unknown origin) by scintillation proximity assay
[18] = target: Serine/threonine-protein kinase MRCK alpha (Homo sapiens, UniProt Q5VT25); test: Inhibition of MRCKa (unknown origin) by scintillation proximity assay
Chain of Serine/threonine-protein kinase MRCK alpha (Q5VT25 whole entry): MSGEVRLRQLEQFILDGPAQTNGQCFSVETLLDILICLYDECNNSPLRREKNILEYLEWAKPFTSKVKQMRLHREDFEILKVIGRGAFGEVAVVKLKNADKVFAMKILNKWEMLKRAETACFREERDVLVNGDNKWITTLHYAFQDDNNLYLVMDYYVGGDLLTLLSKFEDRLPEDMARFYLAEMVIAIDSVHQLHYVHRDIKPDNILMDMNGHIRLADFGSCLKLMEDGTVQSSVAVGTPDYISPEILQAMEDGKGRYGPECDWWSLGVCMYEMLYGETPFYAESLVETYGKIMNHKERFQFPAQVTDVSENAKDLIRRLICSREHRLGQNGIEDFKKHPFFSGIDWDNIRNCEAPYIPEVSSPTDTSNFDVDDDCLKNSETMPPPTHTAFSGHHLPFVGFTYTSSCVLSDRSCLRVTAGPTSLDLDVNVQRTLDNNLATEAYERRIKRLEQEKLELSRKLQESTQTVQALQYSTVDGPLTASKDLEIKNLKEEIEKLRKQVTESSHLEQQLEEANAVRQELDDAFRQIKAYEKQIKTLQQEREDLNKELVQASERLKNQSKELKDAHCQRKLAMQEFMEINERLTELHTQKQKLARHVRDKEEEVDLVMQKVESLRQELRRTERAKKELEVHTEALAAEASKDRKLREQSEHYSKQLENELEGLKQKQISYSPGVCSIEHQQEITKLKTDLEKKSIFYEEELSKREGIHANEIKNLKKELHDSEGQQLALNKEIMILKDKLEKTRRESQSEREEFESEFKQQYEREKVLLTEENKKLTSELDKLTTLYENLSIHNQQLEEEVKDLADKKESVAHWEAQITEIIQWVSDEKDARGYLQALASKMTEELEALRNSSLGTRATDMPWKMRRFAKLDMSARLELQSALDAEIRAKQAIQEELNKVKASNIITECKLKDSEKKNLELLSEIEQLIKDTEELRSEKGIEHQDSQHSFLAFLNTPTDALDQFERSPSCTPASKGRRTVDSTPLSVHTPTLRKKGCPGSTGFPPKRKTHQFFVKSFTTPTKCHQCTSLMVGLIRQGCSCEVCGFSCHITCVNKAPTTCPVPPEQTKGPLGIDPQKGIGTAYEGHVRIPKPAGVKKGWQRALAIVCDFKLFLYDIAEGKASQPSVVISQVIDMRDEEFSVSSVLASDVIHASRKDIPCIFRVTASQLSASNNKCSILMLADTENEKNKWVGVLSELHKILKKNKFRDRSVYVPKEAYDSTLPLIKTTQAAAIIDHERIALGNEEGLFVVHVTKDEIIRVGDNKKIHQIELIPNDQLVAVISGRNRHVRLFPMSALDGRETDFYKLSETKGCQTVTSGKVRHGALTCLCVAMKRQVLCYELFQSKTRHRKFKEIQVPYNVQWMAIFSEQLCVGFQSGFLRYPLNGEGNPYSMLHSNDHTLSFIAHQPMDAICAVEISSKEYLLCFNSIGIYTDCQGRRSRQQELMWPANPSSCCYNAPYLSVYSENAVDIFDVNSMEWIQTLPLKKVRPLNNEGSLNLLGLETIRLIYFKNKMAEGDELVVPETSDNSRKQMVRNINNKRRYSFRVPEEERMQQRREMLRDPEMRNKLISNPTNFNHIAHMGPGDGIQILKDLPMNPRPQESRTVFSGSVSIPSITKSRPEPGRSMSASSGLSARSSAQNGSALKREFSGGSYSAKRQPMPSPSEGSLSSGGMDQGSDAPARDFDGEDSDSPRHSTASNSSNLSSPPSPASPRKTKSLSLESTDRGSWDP

[19] = target: Serine/threonine-protein kinase 38 (Homo sapiens, UniProt Q15208); test: Inhibition of NDR1 (unknown origin) by scintillation proximity assay
Chain of Serine/threonine-protein kinase 38 (Q15208 whole entry): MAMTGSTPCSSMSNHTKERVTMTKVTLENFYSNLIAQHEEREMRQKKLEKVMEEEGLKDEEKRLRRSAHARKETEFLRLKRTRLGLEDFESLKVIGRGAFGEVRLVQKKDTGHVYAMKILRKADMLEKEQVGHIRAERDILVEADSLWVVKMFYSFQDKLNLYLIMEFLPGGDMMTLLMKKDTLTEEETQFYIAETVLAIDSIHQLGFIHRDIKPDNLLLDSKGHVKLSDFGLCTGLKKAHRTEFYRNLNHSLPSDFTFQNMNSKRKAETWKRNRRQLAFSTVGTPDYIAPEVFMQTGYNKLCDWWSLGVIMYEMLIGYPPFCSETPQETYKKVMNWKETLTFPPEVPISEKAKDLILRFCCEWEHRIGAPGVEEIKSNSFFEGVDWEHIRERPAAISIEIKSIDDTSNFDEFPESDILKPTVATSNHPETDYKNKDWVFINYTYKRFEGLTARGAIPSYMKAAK

[20] = target: Serine/threonine-protein kinase PAK 1 (Homo sapiens, UniProt Q13153); test: Inhibition of PAK1 (unknown origin) by scintillation proximity assay
[21] = target: cAMP-dependent protein kinase catalytic subunit beta (Homo sapiens, UniProt P22694); test: Inhibition of PKA-C beta (unknown origin) by scintillation proximity assay
[22] = target: Receptor-interacting serine/threonine-protein kinase 1 (Homo sapiens, UniProt Q13546); test: Inhibition of RIPK1 (unknown origin) by scintillation proximity assay
[23] = target: Receptor-interacting serine/threonine-protein kinase 2 (Homo sapiens, UniProt O43353); test: Inhibition of RIPK2 (unknown origin) by scintillation proximity assay
Chain of Receptor-interacting serine/threonine-protein kinase 2 (O43353 whole entry): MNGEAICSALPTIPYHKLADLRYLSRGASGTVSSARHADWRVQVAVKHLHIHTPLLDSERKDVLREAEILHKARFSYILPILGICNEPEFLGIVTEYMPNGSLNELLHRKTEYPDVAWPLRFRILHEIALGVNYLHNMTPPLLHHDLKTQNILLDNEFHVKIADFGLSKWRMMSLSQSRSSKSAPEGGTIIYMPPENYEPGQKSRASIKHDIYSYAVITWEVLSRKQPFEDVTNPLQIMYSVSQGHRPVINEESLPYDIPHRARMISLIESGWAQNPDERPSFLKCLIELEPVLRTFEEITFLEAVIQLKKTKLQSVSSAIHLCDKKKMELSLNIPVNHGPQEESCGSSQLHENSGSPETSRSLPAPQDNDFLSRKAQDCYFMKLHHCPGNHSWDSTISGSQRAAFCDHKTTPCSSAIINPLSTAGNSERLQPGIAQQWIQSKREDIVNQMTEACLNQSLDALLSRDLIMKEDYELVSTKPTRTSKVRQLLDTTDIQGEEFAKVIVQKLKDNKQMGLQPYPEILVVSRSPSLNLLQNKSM

[24] = target: Interleukin-1 receptor-associated kinase 1 (Homo sapiens, UniProt P51617); test: Binding affinity to IRAK1 (unknown origin) by kinomescan competition binding assay
[25] = Plasma protein binding in human by LC-MS analysis; format: ADME, cell-free; details: read-out: PPB
[26] = Plasma protein binding in CD-1 mouse by LC-MS analysis; format: ADME, cell-free; details: read-out: PPB (converted)
[27] = Plasma protein binding in Sprague-Dawley rat by LC-MS analysis; format: ADME, cell-free; details: read-out: PPB (converted)
[28] = Inhibition of LPS-induced TNFalpha mRNA expression in immortalized mouse BMDM cells preincubated for 2 hrs followed by LPS stimulation and measured after 16 hrs by qPCR analysis; format: functional, cell-based
[29] = Inhibition of LPS-induced IL-6 mRNA expression in immortalized mouse BMDM cells preincubated for 2 hrs followed by LPS stimulation and measured after 16 hrs by qPCR analysis; format: functional, cell-based
[30] = Inhibition of LPS-induced IL-6 mRNA expression in human PBMC cells preincubated for 2 hrs followed by LPS stimulation and measured after 16 hrs by qPCR analysis; format: functional, cell-based
[31] = Inhibition of LPS-induced TNFalpha protein expression in immortalized mouse BMDM cells preincubated for 2 hrs followed by LPS stimulation and measured after 16 hrs by ELISA; format: functional, cell-based
[32] = Inhibition of LPS-induced IL-6 protein expression in immortalized mouse BMDM cells preincubated for 2 hrs followed by LPS stimulation and measured after 16 hrs by ELISA; format: functional, cell-based
[33] = Inhibition of LPS-induced TNFalpha protein expression in human PBMC cells preincubated for 2 hrs followed by LPS stimulation and measured after 16 hrs by ELISA; format: functional, cell-based
[34] = test system: Mus musculus; test: In vivo inhibition of LPS-induced TNF-alpha protein level in C57BL/6 mouse assessed as reduction in TNF-alpha level in serum at 50 to 100 mg/kg, po administered for 1 hr followed by LPS stimulation and measured after 3 hrs by ELISA; format: functional, organism-based; details: dose 50-100 mg/kg, time 4.0 hrs
[35] = Clearance in Sprague-Dawley rat assessed as liver blood flow at 2 mg/kg, iv measured after 5 mins to 24 hrs by LC-MS analysis; format: ADME, organism-based; details: in vivo, time 5-1440 min
[36] = test system: MEF; test: Cytotoxicity against MEF cells at 3 uM; format: toxicity, cell-based; details: mouse
[37] = test system: BMDM; test: Cytotoxicity against immortalized mouse BMDM cells at 3 uM; format: toxicity, cell-based
[38] = Cytotoxicity against Splenocytes (unknown origin) at 3 uM; format: toxicity, cell-based; details: splenocyte

`CCOc1nc2c(cc1C(=O)Nc1cccc(OC)n1)CC(C)(C)O2` gave an IC50 [1] of 87 nM.
Work on `CN1CCC(Oc2nc3c(cc2C(=O)Nc2cccc(-c4cnn(C)c4)n2)CC(C)(C)O3)C1` (stereo unspecified) yielded an IC50 [1] of 74 nM.
`Cn1cc(-c2cccc(NC(=O)c3cc4c(nc3OC3CC3)OC(C)(C)C4)n2)cn1` gave a clearance [2] of 43 mL/min/kg and a bioavailability [3] of 1.6%.
`CCOc1nc2c(cc1C(=O)Nc1cccc(C(F)F)n1)CC(C)(C)O2` showed an IC50 [1] of 48 nM.
Work on `Cn1cc(-c2cccc(NC(=O)c3cc4c(nc3OC3CCC3)OC(C)(C)C4)n2)cn1` yielded an IC50 [1] of 6 nM, a clearance [2] of 41 mL/min/kg and a bioavailability [3] of 3.1%.
Molecule `CCOc1nc2c(cc1C(=O)Nc1cccc(-c3ccn(C)n3)n1)CC(C)(C)O2` has an IC50 [1] of 1370 nM.
Work on `Cn1cc(-c2cccc(NC(=O)c3cc4c(nc3OC3CCCC3)OC(C)(C)C4)n2)cn1` yielded an IC50 [1] of 5.7 nM.
Work on `CC(C)Oc1nc2c(cc1C(=O)Nc1cccc(-c3cnn(C)c3)n1)CC(C)(C)O2` yielded an IC50 [1] of 5.8 nM, a clearance [2] of 44 mL/min/kg and a bioavailability [3] of 7.5%.
With `CCOc1nc2c(cc1C(=O)Nc1cccc(-c3ccnn3C)n1)CC(C)(C)O2` the IC50 [1] was 75 nM.
`Cn1cc(-c2cccc(NC(=O)c3cc4c(nc3O[C@H]3C[C@H](O)C3)OC(C)(C)C4)n2)cn1` showed a clearance [2] of 18 mL/min/kg and a bioavailability [3] of 11%.
With `CCOc1nc2c(cc1C(=O)Nc1cnn3cccnc13)CC(C)(C)O2` the IC50 [1] was 96 nM.
Molecule `CNCCOc1nc2c(cc1C(=O)Nc1cccc(-c3cnn(C)c3)n1)CC(C)(C)O2` has an IC50 [1] of 111 nM.
With `CCOc1nc2c(cc1C(=O)Nc1cccc(C)n1)CC(C)(C)O2` the IC50 [1] was 112 nM.
For `CCOc1nc2c(cc1C(=O)Nc1cnn(C)c1)CC(C)(C)O2`, the IC50 [1] was greater than 6000 nM.
In the case of `COc1nc2c(cc1C(=O)Nc1cccc(-c3cnn(C)c3)n1)CC(C)(C)O2`, the IC50 [1] is reported as 51 nM.
`Cn1cc(-c2cccc(NC(=O)c3cc4c(nc3O[C@@H]3CCOC3)OC(C)(C)C4)n2)cn1` showed a clearance [2] of 31 mL/min/kg and a bioavailability [3] of 6.2%.
Molecule `CCOc1nc2c(cc1C(=O)Nc1cccc(-c3cnn(C)c3)n1)CC(C)(C)O2` has a clearance [2] of 43 mL/min/kg and a bioavailability [3] of 3.6%.
For `Cn1cc(-c2cccc(NC(=O)c3cc4c(nc3OC3CCNC3)OC(C)(C)C4)n2)cn1` (stereo unspecified), the IC50 [1] was 379 nM.
`Cn1cc(-c2cccc(NC(=O)c3cc4c(nc3O[C@H]3C[C@@H](O)C3)OC(C)(C)C4)n2)cn1` gave a clearance [2] of 12 mL/min/kg, a bioavailability [3] of 21% and an IC50 [4] greater than 30000 nM. For the same molecule, the IC50 [5] was greater than 30000 nM, the IC50 [6] was 25700 nM and the IC50 [7] was greater than 30000 nM. It also gave an IC50 [8] of 2990 nM, an IC50 [9] greater than 30000 nM and an IC50 [10] of 9 nM. For the same molecule, the IC50 [11] was 788 nM, the IC50 [12] was 34 nM and the IC50 [13] was greater than 30000 nM. The IC50 [14] was 11 nM, the IC50 [15] was greater than 30000 nM and the IC50 [16] was 26500 nM. The IC50 [17] was greater than 30000 nM, the IC50 [18] was greater than 30000 nM and the IC50 [19] was 16500 nM. The IC50 [20] was greater than 30000 nM, the IC50 [21] was greater than 30000 nM and the IC50 [22] was 4690 nM. The IC50 [23] was 8350 nM, the Kd [24] was 13 nM and the fraction unbound [25] was 0.01. The fraction unbound [26] was 0.02, the fraction unbound [27] was 0.03 and the IC50 [28] was 1200 nM. For the same molecule, the IC50 [29] was 214 nM, the IC50 [30] was 560 nM and the IC50 [31] was 495 nM. For the same molecule, the IC50 [32] was 130 nM, the IC50 [33] was 54.1 nM and the inhibition [34] was “Active”. For the same molecule, the LBF [35] was less than 30%, the Activity [36] was “Toxic” and the Activity [37] was “Toxic”. The Activity [38] was “Toxic”.
In the case of `Cn1cc(-c2cccc(NC(=O)c3cc4c(nc3OC3COC3)OC(C)(C)C4)n2)cn1`, the clearance [2] is reported as 58 mL/min/kg and the bioavailability [3] is reported as 1.5%.
With `CCOc1nc2c(cc1C(=O)Nc1cccc(C(F)(F)F)n1)CC(C)(C)O2` the IC50 [1] was 194 nM.
